Assay results taken from ChEMBL document CHEMBL1817599, “Inhibition of LuxS by S-ribosylhomocysteine analogues containing a [4-aza]ribose ring” (Bioorg Med Chem, 2011).
Active and inactive are the calls of the source. The rule behind the calls is not given here.

Assays:
[1] = biological target: T1, S-ribosylhomocysteine lyase (Bacillus subtilis (strain 168)) (UniProt O34667); experiment: Inhibition of Bacillus subtilis LuxS preincubated for 15 mins by UV-vis spectrophotometric analysis
T1 sequence (whole entry): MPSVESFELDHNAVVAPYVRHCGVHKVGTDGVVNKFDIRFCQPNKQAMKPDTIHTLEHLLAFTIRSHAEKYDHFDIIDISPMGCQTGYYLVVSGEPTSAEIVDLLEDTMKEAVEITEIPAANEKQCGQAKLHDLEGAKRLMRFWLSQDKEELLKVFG

[2] = biological target: T1, S-ribosylhomocysteine lyase (Bacillus subtilis (strain 168)); experiment: Competitive inhibition of Bacillus subtilis LuxS preincubated for 15 mins by UV-vis spectrophotometric analysis
[3] = biological target: T1, S-ribosylhomocysteine lyase (Bacillus subtilis (strain 168)); experiment: Inhibition of Bacillus subtilis LuxS at 20 to 50 uM by UV-vis spectrophotometric analysis; settings: TDE = time-dependent effect
[4] = biological target: T1, S-ribosylhomocysteine lyase (Bacillus subtilis (strain 168)); experiment: Competitive inhibition of Bacillus subtilis LuxS preincubated for 30 mins by UV-vis spectrophotometric analysis
[5] = biological target: T2, S-ribosylhomocysteine lyase (Bacillus subtilis (strain 168), UniProt O34667); experiment: as above
T2 sequence (O34667 whole entry): T1 sequence (whole entry)

| inhibition [1] | SMILES | other results |
| --- | --- | --- |
| inactive | N[C@@H](CCSC[C@@H]1[C@@H](O)[C@@H](O)C(=O)N1Cc1ccccc1)C(=O)O | – |
| – | N[C@@H](CCSC[C@H]1NC[C@H](O)[C@@H]1O)C(=O)O | inhibition [2]: Dose-dependent effect |
| – | N[C@@H](CCSC[C@H]1NC(O)[C@H](O)[C@@H]1O)C(=O)O (mixture of isomers) | inhibition [3]: tde; Ki [4]: 3.5 µM; IC50 [5]: 60 µM |
| inactive | CC1=N[C@H](CSCCC(N)C(=O)O)[C@@H](O)[C@H]1O (mixture of isomers) | – |
| inactive | CCCSC[C@@H]1CCC(O)N1 (mixture of isomers) | – |
| inactive | NC(CCSC[C@@H]1CCC(=O)N1)C(=O)O (mixture of isomers) | – |
| inactive | N[C@@H](CCSC[C@@H]1CCC(O)N1)C(=O)O (mixture of isomers) | – |
